This is an account of results in US10076522B2, “Systems and methods for treating bacterial infection” (priority 2016, dated 2018).

In brackets after ≈: the same amount, converted by molar mass. Entries after “also recorded” stand apart in the source; their conditions may differ.

The test system of series [1] is acute bacterial skin and skin structure infections (ABSSSIs) suspected or confirmed to be due to Gram-positive pathogens. In words: Phase III REVIVE-1 study, efficacy of fixed dose iclaprim versus vancomycin. The conditions noted are these: ITT; for non-inferiority (10% margin) compared to vancomycin: 80 mg over 2 hr q12h IV. Type of series: in vivo, human. Here is the method: Subjects were evaluated daily up to ETP, then every 48 to 72 hours through the end of treatment. If the last dose of study drug fell on a day when an evaluation was not planned, an additional evaluation visit was performed on that day (i.e., all EOT evaluations were performed on the last day [+2 days] of drug dose).
The infusion time and duration of treatment for both groups was 2 hours and 5 days (minimum duration) to 14 days (maximum duration), respectively.
The primary endpoint for clinical response (defined as the reduction in lesion size ≥20% compared to baseline) was evaluated in all randomized subjects at ETP (48 to 72 hours post-first dose). […] In addition, clinical outcome was evaluated by the investigator at EOT and TOC (7 to 14 days post EOT). The assessments of clinical outcome was categorized as cure, failure, or indeterminate.
Iclaprim was administered at a dose of 80 mg in 500 mL normal saline, infused over 2 hours q12h (every 12 hours) for 5 to 14 days. For subjects with moderate hepatic impairment (Child-Pugh Class B), iclaprim was administered at a dose of 40 mg in 500 mL normal saline, infused over 2 hours q12h for 5 to 14 days.
Dosing interval was every q12 h, q24 h, q48 h, or dosed by daily level based on creatinine clearance.
The primary efficacy endpoint was the proportion of randomized subjects who achieved an early clinical response (defined as reduction in the lesion size ≥20% compared to baseline) at 48 to 72 hours (ETP) and was evaluated among all randomized subjects (ITT population).
The NI bound were 10%. […] Equivalently, if the lower bound of the two-sided 95% CI for P1-P2 was greater than −0.100 based on the Z test with unpooled variance estimate, NI was concluded.

For series [2] the following is noted: both, human, in vivo.
Protocol: A second single-dose ECG study was conducted on healthy human volunteers using weight-based doses of 0.4 mg/kg and 0.8 mg/kg iclaprim base infused over 30 minutes and 1.6 mg/kg infused over 60 minutes.
For series [3] the following is noted: in vivo.
For the next series, the system named is S. aureus. In words: MIC90 in worldwide surveillance studies. The following applies: Staphylococcus aureus. Type of series: cell-based.

Description for S. aureus: The ASSIST-1 and ASSIST-2 studies used sparse sampling with a population PK analysis. The post-hoc estimates of the individual subject PK parameters were used to simulate the plasma iclaprim concentration-time profiles for each subject and, from those profiles, the corresponding values for Cmaxss, AUC0-24hss, AUC/MIC, and T>MIC.

For the compound `COc1cc(Cc2cnc(N)nc2N)c2c(c1OC)OC(C1CC1)C=C2` (racemic) [Iclaprim], in series [1] (ETP), the “non-inferiority (10% margin) compared to vancomycin” value was “achieved the primary endpoint of non-inferiority; also recorded: non-inferior” and the “Early Clinical Response (ECR), % Difference iclaprim vs vancomycin” value is recorded as −0.13%. For the same compound, in series [1] (TOC), the “non-inferiority (10% margin) compared to vancomycin” value was “achieved NI”; the “Clinical cure, % Difference iclaprim vs vancomycin” value was −2.77%; the “Clinical cure, percent of subjects” value was found to be 84.2%. For the same compound, in series [1] (ETP (48 to 72 hours)), the “Early Clinical Response (ECR), number of subjects” value is recorded as 241 and the “Early Clinical Response (ECR), percent of subjects” value stood at 80.9%. In addition, the “Clinical cure, number of subjects” value in series [1] (TOC (7 to 14 days after study drug discontinuation)) was found to be 251. Also, in series [2], the “post-infusion QTcF prolongation from baseline (any subject)” value is at most 60 ms. In addition, the “dose-related increase in QTc” value in series [3] is “did not”. Besides, the MIC90 (as a rule, an inhibitory concentration at the 90% level, which refers to growth in some studies and to a panel of isolates in others) in the series on S. aureus amounted to 0.12 µg/mL (≈ 0.339 µM).
